# Data as given in US10780096B2, “Pyrrolobenzodiazepine-antibody conjugates” (priority 2014, dated 2020).
# Read-outs that look alike come from different tables or passages of the source.
# Key:
# [1] = system: CD25-negative Ramos cells; details: second culture 96 hrs
# Experimental: FIG. 5. […] Data is presented as the mean±SD.
# In these experiments, an first 48 hr culture of either (A) CD25-negative cells Ramos cells, or (B) CD25-positive Karpas 299, with ADCT-301 was performed. When this first culture was complete, the culture was centrifuged and 50 μl of the supernatant media transferred to 50 μl of a freshly prepared culture of either (A) CD25-negative cells Ramos cells, or (B) CD25-positive Karpas 299. This second culture was performed for 96 hrs, then cytotoxicity assessed by the MTS assay.
# HDLM-2 = experiment: MTS cell proliferation assay, in vitro cytotoxicity; type: cell-based; details: HDLM-2, Hodgkin's lymphoma, CD25 expressing, 96 hours
# Experimental: (§1) FIG. 2. In vitro cytotoxicity of ADCT-301 on six lymphoma cell lines as measured by the MTS cell proliferation assay. Cells were incubated with increasing concentrations of ADCT-301 for 96 hours. Data is presented as the mean±SD
# (§2) Cell surface protein copy number of CD25 and CD30 was determined on various lymphoma cell lines by flow cytometric Qifikit® assay. Cytotoxicity of ADCT-301 on these cell lines was determined by cell proliferation assay (MTS) to determine whether there is a correlation between CD25 copy number and in vitro cytotoxic potency.
# Daudi = experiment: as above; type: cell-based; details: Burkitt's lymphoma, CD25 negative, 96 hours
# Experimental: as §1, §2
# Karpas 299 = experiment: as above; type: cell-based; details: Karpas 299, anaplastic large cell lymphoma, CD25 expressing, 96 hours
# Experimental: as §1, §2
# L540 = experiment: as above; type: cell-based; details: L540, Hodgkin's lymphoma, CD25 expressing, 96 hours
# Experimental: as §1, §2
# HuT 78 = experiment: as above; type: cell-based; details: HuT 78, cutaneous T cell lymphoma, CD25 negative, 96 hours
# Experimental: as §1, §2
# SU-DHL-1 = experiment: as above; type: cell-based; details: SU-DHL-1, anaplastic large cell lymphoma, CD25 expressing, 96 hours
# Experimental: as §1, §2
# [2] = system: CD25-negative Burkitt lymphoma Ramos cells; experiment: Conditioned media transfer from SuDHL-1 culture to Ramos cells, MTS assay; type: cell-based, human; details: media conditioned by 48 hr culture of CD25-positive SuDHL-1 cells; second culture 96 hrs
# Experimental: FIG. 6. Comparison of CD25−ve bystander cytotoxicity observed with cleavable vs. non-cleavable linkers by in vitro conditioned media transfer. […] The error bars indicate % cell viability±SD of 3 independent repeats
# The effect of linker cleavablility was investigated in conditioned media transfer experiments. In these experiments, a first 48 hr culture CD25-positive SuDHL-1 cells was performed with either (1) of ADCT-301 (cleavable linker), or (2)NC-1 (composed of the recombinant human IgG1, HuMax®-TAC against human CD25 attached to a pyrrolobenzodiazepine PBD warhead with non-cleavable linker according to the alternative aspect of the disclosure).
# [3] = system: CD25-positive SuDHL-1 cells; experiment: Cytotoxicity on CD25-positive SuDHL-1 cells, cleavable vs non-cleavable linker; type: cell-based; details: direct treatment of CD25-positive SuDHL-1 cells
# human CD25 = target: T1, human CD25 (Homo sapiens, UniProt P01589); experiment: Flow cytometry binding of ADCT-301-FITC on concanavalin-A activated CD25-positive human PBMCs; details: CD25-PE gate
# T1 construct: endogenous in cells
# T1 sequence (P01589 22-272): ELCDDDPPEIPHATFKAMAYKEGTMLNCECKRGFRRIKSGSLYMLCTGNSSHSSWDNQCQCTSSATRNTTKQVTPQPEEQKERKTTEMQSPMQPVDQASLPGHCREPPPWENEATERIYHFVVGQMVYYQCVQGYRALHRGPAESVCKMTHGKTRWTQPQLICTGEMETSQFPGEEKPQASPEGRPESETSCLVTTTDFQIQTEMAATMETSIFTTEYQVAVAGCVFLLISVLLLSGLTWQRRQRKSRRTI
# Experimental: FIG. 1. Affinity of ADCT-301 for human CD25 as determined by flow cytometry on concanavalin-A activated CD25-positive human PBMCs. ADCT-301-FITC binding was assessed in a CD25-PE (phycoerythrin) gate across the dilution series by measuring median fluorescent intensity (MFI) in channel FL1H. Isotype, non-targeting-ADC-FITC was used as the non-binding ADC control.
# Relative binding affinity of ADCT-301 was measured by flow cytometry on Concanavalin A-activated CD25-positive lymphocytes. Surface plasmon resonance (SPR, Biacore) was used to measure binding affinity and binding kinetics of HuMax®-TAC and ADCT-301 on recombinant sCD25 ectodomain attached to a gold surface.
# [4] = system: CD25-negative Ramos cells; experiment: Bystander effect in co-culture of Karpas 299 and Ramos cells, flow cytometry; type: cell-based, human; details: 96 hour exposure, co-culture with CD25-positive Karpas 299, compared to Ramos cultured alone
# Experimental: FIG. 3. […] The histogram depicts the percentage of viable populations of cells as measured by flow cytometry.
# Readout was Karpas 299 and Ramos cell numbers and the viability of these cells both of which were determined by flow cytometry.
# Ramos cells are human B lymphocytes of Burkitt's lymphoma.
substance,measurement,setting,value
"ADCT-301: recombinant human IgG1, HuMax-TAC against human CD25 attached to a pyrrolobenzodiazepine PBD warhead, cleavable linker; drug-antibody ratio 2.3±0.3; HuMax-TAC-E of WO2014/57119",Cytotoxicity to Ramos cells of conditioned media,[1]; media conditioned by 48 hr culture of CD25+ve Karpas299 cells,potent cytotoxicity
same,Cytotoxicity to Ramos cells of conditioned media,[1]; media conditioned by 48 hr culture of CD25-ve Ramos cells,does not lead to any observable increase in cytoxicity
same,GI50,HDLM-2,0.0511 nM
same,Mean GI50,HDLM-2,7.67 ng/mL
same,GI50,Daudi,> 10 nM
same,Mean GI50,Daudi,>>150 ng/ml
same,GI50,Karpas 299,0.0365 nM
same,Mean GI50,Karpas 299,5.47 ng/mL
same,GI50,L540,0.0216 nM
same,Mean GI50,L540,3.25 ng/mL
same,GI50,HuT 78,> 10 nM
same,Mean GI50,HuT 78,>>150 ng/ml
same,GI50,SU-DHL-1,0.0165 nM
same,Mean GI50,SU-DHL-1,2.48 ng/mL
same,Cytotoxicity to Ramos cells of conditioned media,[2],shows cytotoxicity of CD25-negative Burkitt lymphoma Ramos cells
same,Sensitivity of SuDHL-1 cells to treatment,[3],equally sensitive
same,"EC50 (affinity for human CD25, median fluorescent intensity)",human CD25,≈ 0.03 μg/ml
same,Bystander killing of Ramos cells in co-culture,[4],specific bystander killing of Ramos cells
